These results are taken from US4603121A, “Enkephalin analogs” (G. D. Searle & Co., priority 1984, dated 1986).

Assay [1] deals with PBQ-induced writhing in mice. Put plainly: PBQ-Writhing assay. It counts as in vivo. Particulars: male mice, subcutaneous, ED50 from number of animals protected compared to saline controls. As to the method:
PBQ-Writhing assay. Groups of 10 male mice weighing 20 to 35 grams are used for each dose and for the vehicle control. Writhing is induced 30 or 60 minutes following drug or drug vehicle administration by the intraperitoneal injection of a 0.025 percent solution of PBQ and 5 percent ethanol. The number of separate writhing motions occurring in a ten minute period starting 5 minutes following the PBQ challenge is counted for each mouse. A positive antinociceptive affect is assured when an individual animals' writhing frequency is less than or equal to 50 percent of the vehicle control group median frequency. ED50 values based on the number of positive responders per dose group is determined using the method of Litchfield and Wilcoxon. M. R. Fennessy et al. The Assessment of and Problems Involved in the Experimental Evaluation of Narcotic Analgesics. In Methods in Narcotics Research, Marcel Dekker, Inc., New York, 1975. H. Bomberg et al. Use of Writhing Test for Evaluating Analgesic Activity of Narcotic Analgesics, Proc. Soc. Ext. Biol. Med. 118: 763-766, 1965.
The compounds of the invention were evaluated with respect to analgesic activity utilizing the test procedures described previously. Set forth in Table I below are the test results in the writhing assay for certain preferred compounds of the invention within formula I. The data summarized represents the ED50 calculated on the basis of the number of animals protected at a dose of 10 mg/Kg of the active test compound compared to saline controls.

Assay [2] has as its system brain opiate receptor sites. The note with it: partially purified brain opiate receptor sites; cited from earlier work.
In a further assay the test system is opiate activity. The note with it: cited from earlier work.
The next assay has as its system rat. Particulars: injected directly into the brain of the rat; cited from earlier work.

Turning to “2,6-dimethyltyrosyl-D-norleucylglycyl-3-cyclohexyl-N-(6-methoxy-6-oxohexyl)-L-alaninamide, monohydrochloride(diastereomer-D) [Example 104]”, the “Activity (ED50 mg/Kg - Administered Subcutaneously)” value in assay [1] amounted to 0.20 mg/kg. Turning to `COC(=O)CCCCCNC(=O)[C@H](CC1CCCCC1)N(C)C(=O)CNC(=O)[C@@H](CCSC)NC(=O)[C@@H](N)Cc1c(C)cc(O)cc1C.Cl` [Example 43, 2,6-dimethyl-L-tyrosyl-D-methionylglycyl-N-(6-methoxy-6-oxohexyl)-3-cyclohexyl-N^α -methyl-L-alaninamide monohydrochloride], the “Activity (ED50 mg/Kg - Administered Subcutaneously)” value in assay [1] was 0.20 mg/kg. Same read-out and setting: as for `CSCC[C@@H](NC(=O)[C@@H](N)Cc1c(C)cc(O)cc1C)C(=O)NCC(=O)N[C@@H](CC1CCCCC1)C(=O)NCCCCCC(=O)O.Cl` [Example 127, 2,6-dimethyl-L-tyrosyl-D-methionylglycyl-N-(5-carboxypentyl)-3-cyclohexyl-L-alaninamide, monohydrochloride], the figure is 0.09 mg/kg. Turning to methionine enkephalin, the “binding to opiate receptor sites” value in assay [2] is listed as “binds stereospecifically”. The “activity in bioassays for opiate activity” value in the assay on opiate activity is recorded as “highly active”. Further, the analgesic activity result in the assay with rat is “weak, fleeting analgesic activity”.
